Test results published in PubChem BioAssay AID248 (DTP/NCI, 2004).
Where “and” joins values, the source holds several entries; their conditions need not be identical. Equal values may be shown once. Inconclusive results and toxic doses are left out. Cut-off read from the data, not from the text of the source: active = T/C of 150% or more; inactive = T/C below 125%.

Tested on: L1210 leukemia ip in BDF1 mice, survival T/C
Experiment: NCI In Vivo Anticancer Drug Screen. Data for tumor model L1210 Leukemia (intraperitoneal) in B6D2F1 (BDF1) mice
Conditions: endpoint: mean survival time, higher = longer survival
In short: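 Tumor cells were implanted, animals were treated, and survival was followed. The result divides the treated measurement by the vehicle-control measurement.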

[1] = dose: 100.0 mg/kg/injection, schedule: Q01DX009 (ip), vehicle: Klucel (hydroxypropylcellulose) (HPC)
[2] = dose: 200.0 mg/kg/injection, schedule: Q01DX009 (ip), vehicle: Klucel (hydroxypropylcellulose) (HPC)
[3] = dose: 400.0 mg/kg/injection, schedule: Q01DX009 (ip), vehicle: Klucel (hydroxypropylcellulose) (HPC)
[4] = dose: 100.0 mg/kg/injection, schedule: Q01DX009 (ip), vehicle: saline with Tween-80
[5] = dose: 400.0 mg/kg/injection, schedule: Q01DX009 (ip), vehicle: saline with Tween-80
[6] = dose: 400.0 mg/kg/injection, schedule: Q04DX003 (ip), vehicle: saline with Tween-80
[7] = dose: 100.0 mg/kg/injection, schedule: Q04DX003 (ip), vehicle: saline with Tween-80
[8] = dose: 200.0 mg/kg/injection, schedule: Q04DX003 (ip), vehicle: saline with Tween-80
[9] = dose: 200.0 mg/kg/injection, schedule: Q01DX009 (ip), vehicle: saline with Tween-80

Measured: T/C

NC(N)=N/N=C/c1ccc(Cl)c([N+](=O)[O-])c1
inactive: dose: 6.0 mg/kg/injection, schedule: Q01DX Z (oral), vehicle: methylcellulose (MC) 93 % of control | dose: 15.0 mg/kg/injection, schedule: Q01DX Z (oral), vehicle: methylcellulose (MC) 115 % of control | dose: 30.0 mg/kg/injection, schedule: Q01DX Z (oral), vehicle: methylcellulose (MC) 109 % of control | dose: 120.0 mg/kg/injection, schedule: Q01DX Z (oral), vehicle: methylcellulose (MC) 96 % of control

Cc1cccc(NC(=O)c2cccc(F)c2)c1C
inactive: [1] 105 % of control | [2] 100 % of control | [3] 94 % of control

CC1C(C)(C)C1(Cl)Cl (configuration not stated)
inactive: dose: 50.0 mg/kg/injection, schedule: Q01DX009 (ip), vehicle: saline sonified 92 % of control | dose: 100.0 mg/kg/injection, schedule: Q01DX009 (ip), vehicle: saline sonified 92 % of control | dose: 200.0 mg/kg/injection, schedule: Q01DX009 (ip), vehicle: saline sonified 101 % of control

CCCCCCCCCCCCCCCC(=O)Nc1cccc2c[n+](CC(=O)c3ccc(NC(=O)CCC(=O)OC)cc3)ccc12
inactive: [4] 87 % of control | [5] 91 % of control | [6] 94 % of control

CCCCCCCC/C=C\CCCCCCCC(=O)OCCCCCCCCCCCCCC
inactive: [1] 104 % of control | [2] 98 % of control | [3] 94 % of control

Cc1cc([N+](=O)[O-])cc(C)c1OC(=O)c1ccc(N=C(N)N)cc1
inactive: dose: 3.12 mg/kg/injection, schedule: Q01DX009 (ip), vehicle: saline 94 % of control | dose: 6.25 mg/kg/injection, schedule: Q01DX009 (ip), vehicle: saline 93 % of control | dose: 12.5 mg/kg/injection, schedule: Q01DX009 (ip), vehicle: saline 103 % of control | dose: 25.0 mg/kg/injection, schedule: Q01DX009 (ip), vehicle: saline 97 % of control and 107 % of control | dose: 25.0 mg/kg/injection, schedule: Q04DX003 (ip), vehicle: saline 111 % of control | dose: 50.0 mg/kg/injection, schedule: Q01DX009 (ip), vehicle: saline 103 % of control and 92 % of control | dose: 50.0 mg/kg/injection, schedule: Q04DX003 (ip), vehicle: saline 105 % of control | dose: 100.0 mg/kg/injection, schedule: Q04DX003 (ip), vehicle: saline 100 % of control

Nc1cc(S(N)(=O)=O)ccc1N1CCCC1
inactive: [7] 96 % of control | [8] 91 % of control | [6] 102 % of control

CCCCCCCCCCCCOC(=O)/C=C\C(=O)NC(N)=O
inactive: dose: 25.0 mg/kg/injection, schedule: Q04DX003 (ip), vehicle: Klucel (hydroxypropylcellulose) (HPC) 102 % of control | dose: 50.0 mg/kg/injection, schedule: Q04DX003 (ip), vehicle: Klucel (hydroxypropylcellulose) (HPC) 97 % of control | dose: 100.0 mg/kg/injection, schedule: Q04DX003 (ip), vehicle: Klucel (hydroxypropylcellulose) (HPC) 105 % of control and 91 % of control | dose: 150.0 mg/kg/injection, schedule: Q04DX003 (ip), vehicle: Klucel (hydroxypropylcellulose) (HPC) 96 % of control

O=C(NCCCCCCNC(=O)Nc1ccc(C2=NCCN2)cc1)Nc1ccc(C2=NCCN2)cc1
inactive: dose: 62.0 mg/kg/injection, schedule: Q01DX Z (ip), vehicle: carboxymethylcellulose (CMC) 106 % of control | dose: 125.0 mg/kg/injection, schedule: Q01DX Z (ip), vehicle: carboxymethylcellulose (CMC) 92 % of control | dose: 250.0 mg/kg/injection, schedule: Q01DX Z (ip), vehicle: carboxymethylcellulose (CMC) 109 % of control | dose: 500.0 mg/kg/injection, schedule: Q01DX Z (ip), vehicle: carboxymethylcellulose (CMC) 102 % of control

CN(C)c1ccc(/C=C/c2ccc([N+](=O)[O-])cc2[N+](=O)[O-])c(Cl)c1
inactive: dose: 50.0 mg/kg/injection, schedule: Q01DX009 (ip), vehicle: saline with Tween-80 88 % of control | [4] 100 % of control | [9] 91 % of control

N#CC(C#N)=Cc1c[nH]c2ccccc12
inactive: [4] 86 % of control | [7] 95 % of control | [9] 89 % of control | [8] 97 % of control | [5] 86 % of control

CN(C)C(=O)c1cccc([N+](=O)[O-])c1
inactive: [7] 97 % of control | [8] 94 % of control

C[CH2][Hg][I]
inactive: dose: 25.0 mg/kg/injection, schedule: Q04DX002 (ip), vehicle: saline with Tween-80 95 % of control | dose: 50.0 mg/kg/injection, schedule: Q04DX002 (ip), vehicle: saline with Tween-80 97 % of control

CCOC(=O)CNC(=O)Nc1cccc(Cl)c1Cl
inactive: [1] 102 % of control | [2] 98 % of control | [3] 98 % of control

CCn1c2ccccc2c2cc(N=Cc3ccc(N(CCCl)CCCl)cc3C)ccc21
inactive: dose: 50.0 mg/kg/injection, schedule: Q01DX001 (ip), vehicle: carboxymethylcellulose (CMC) 103 % of control | dose: 100.0 mg/kg/injection, schedule: Q01DX001 (ip), vehicle: carboxymethylcellulose (CMC) 103 % of control | dose: 200.0 mg/kg/injection, schedule: Q01DX001 (ip), vehicle: carboxymethylcellulose (CMC) 117 % of control | dose: 400.0 mg/kg/injection, schedule: Q01DX001 (ip), vehicle: carboxymethylcellulose (CMC) 100 % of control

Cc1cccc(Nc2cc(C)nc(N)n2)c1
inactive: dose: 25.0 mg/kg/injection, schedule: Q01DX Z (ip), vehicle: methylcellulose (MC) 105 % of control | dose: 50.0 mg/kg/injection, schedule: Q01DX Z (ip), vehicle: methylcellulose (MC) 100 % of control

CC(C)(C)CC(C)(C)NS(=O)(=O)CCCBr
inactive: dose: 25.0 mg/kg/injection, schedule: Q04DX003 (ip), vehicle: saline with Tween-80 95 % of control | dose: 50.0 mg/kg/injection, schedule: Q04DX003 (ip), vehicle: saline with Tween-80 111 % of control

CCN1/C(=C/C(C)=C/c2[se]c3ccc(C)cc3[n+]2CC)[Se]c2ccc(C)cc21
inactive: dose: 2.0 mg/kg/injection, schedule: Q01DX001 (ip), vehicle: other 109 % of control | dose: 4.0 mg/kg/injection, schedule: Q01DX001 (ip), vehicle: other 114 % of control

Cc1ccc2[nH]c(=O)oc(=O)c2c1
inactive: [4] 105 % of control | [9] 102 % of control
